Test system: ST14A
Assay: Modulation of RE1/NRSE expressed in ST14A cells assessed as increase in luciferase reporter activity at 50 nM after 72 hrs relative to control
Format: cell-based

COc1cc(Br)c(Nc2nc(-c3c(C)nc4cc(C)ccn34)cs2)c(Br)c1
Activity: 1.07

CN(C)c1ccc(Nc2nc(-c3ccccc3)cs2)cc1
Activity: 1.3

Cc1nc(N)sc1-c1csc(Nc2ccc(N(C)C)cc2)n1
Activity: 1.23

Cc1ccnc(Nc2nc(-c3c(C)nc4ccccn34)cs2)c1
Activity: 0.98

Cc1nc2sccn2c1-c1csc(Nc2ccc(O)cc2)n1
Activity: 0.95

Cc1nc2ccccn2c1-c1csc(N)n1
Activity: 0.87

CCN(CC)c1ccc(Nc2nc(-c3c(C)nc4cc(C)ccn34)cs2)cc1
Activity: 1.06

COc1ccc(Cl)c(Nc2nc(-c3c(C)nc4ccccn34)cs2)c1
Activity: 1.09

Cc1ccn2c(-c3csc(Nc4ccc(N)cc4)n3)c(C)nc2c1
Activity: 1.14

CCOc1ccc(Nc2nc(-c3c(C)nc4cc(C)ccn34)cs2)cc1
Activity: 1.88

Cc1nc2ncccn2c1-c1csc(Nc2ccc(N(C)C)cc2)n1
Activity: 3.34

Cc1ccn2c(-c3csc(NCc4ccccc4)n3)c(C)nc2c1
Activity: 1.3

COc1ccc(Cl)c(Nc2nc(-c3c(C)nc4sccn34)cs2)c1
Activity: 0.91

Cc1nc2ccccn2c1-c1csc(NC(=O)c2cccnc2)n1
Activity: 0.98

Cc1nc2ccccn2c1-c1csc(NC(=O)c2ccncc2)n1
Activity: 1

Cc1nc2ccccn2c1-c1csc(NC(=O)c2ccccc2)n1
Activity: 1.09

CN(C)c1ccc(Nc2nc(-c3ccncc3)cs2)cc1
Activity: 1.13

Cc1nc2sccn2c1-c1csc(Nc2ccc(N(C)C)cc2)n1
Activity: 1.8

Cc1nc2ccccn2c1-c1csc(Nc2ccc(Br)cc2)n1
Activity: 1.9

CCN(CC)c1ccc(Nc2nc(-c3c(C)nc4sccn34)cs2)cc1
Activity: 1.04

Cc1nc2ccccn2c1-c1csc(Nc2ccc(O)cc2)n1
Activity: 1.02

CCOc1ccccc1Nc1nc(-c2c(C)nc3cc(C)ccn23)cs1
Activity: 0.94

Cc1ccn2c(-c3csc(Nc4ccc(N(C)C)cc4)n3)c(C)nc2c1
Activity: 2.55

Cc1nc2ccccn2c1-c1csc(Nc2ccccc2)n1
Activity: 1.01

Cc1nc2ccccn2c1-c1csc(NC(=O)c2ccc(Br)cc2)n1
Activity: 0.94

CCN(CC)c1ccc(Nc2nc(-c3c(C)nc4ncccn34)cs2)cc1
Activity: 1.16

COc1ccc(Nc2nc(-c3c(C)nc4cc(C)ccn34)cs2)cc1
Activity: 2.19

C=CCNc1nc(-c2c(C)nc3ccccn23)cs1
Activity: 0.91

Cc1nc2ncccn2c1-c1csc(Nc2ccc(O)cc2)n1
Activity: 0.89

CCN(CC)c1ccc(Nc2nc(-c3c(C)nc4ccccn34)cs2)cc1
Activity: 1.09

Cc1nc2ccccn2c1-c1csc(NCc2ccco2)n1
Activity: 1.01

COc1cc(Br)c(Nc2nc(-c3c(C)nc4ncccn34)cs2)c(Br)c1
Activity: 1.03

COc1ccc(Nc2nc(-c3c(C)nc4ncccn34)cs2)cc1
Activity: 2.29

Cc1ccn2c(-c3csc(Nc4ccc(C(=O)O)cc4)n3)c(C)nc2c1
Activity: 1.12

Cc1ccn2c(-c3csc(Nc4ccc(O)cc4)n3)c(C)nc2c1
Activity: 1.08

Cc1ccn2c(-c3csc(Nc4cccc(C(=O)O)c4)n3)c(C)nc2c1
Activity: 1.14

Cc1nc2ccccn2c1-c1csc(Nc2cccc(O)c2)n1
Activity: 1.04

Cc1nc2ccccn2c1-c1csc(NC(=O)c2ccco2)n1
Activity: 0.94

Cc1ccn2c(-c3csc(NCc4ccco4)n3)c(C)nc2c1
Activity: 0.99

COc1ccc(Cl)c(Nc2nc(-c3c(C)nc4ncccn34)cs2)c1
Activity: 0.74

Cc1nc2sccn2c1-c1csc(Nc2ccc(N)cc2)n1
Activity: 1.14

Cc1nc2ccccn2c1-c1csc(NCc2ccccc2)n1
Activity: 0.97

Cc1nc2ccccn2c1-c1csc(Nc2ccc(N)cc2)n1
Activity: 1.28

COc1ccccc1Nc1nc(-c2c(C)nc3ncccn23)cs1
Activity: 0.97

COc1ccc(Nc2nc(-c3c(C)nc4ccccn34)cs2)cc1
Activity: 2

Source: ChEMBL document CHEMBL1150251, “SAR and QSAR study on 2-aminothiazole derivatives, modulators of transcriptional repression in Huntington's disease” (Bioorg Med Chem, 2008)
